Results taken from patent US10034860B2, “Estrogen receptor modulator for the treatment of locally advanced or metastatic estrogen receptor positive breast cancer” (Genentech, Inc., priority 2013, dated 2018).

Experiments:
[1] = test system: advanced or metastatic ER+ (HER2−) breast cancer; assay: Phase I clinical trial: safety and clinical benefit; format: in vivo
Description: The MTD and/or RP2D will be defined as the dose with ≤1 out of 6 patients with Dose Limiting Toxicity (DLT). Dose Limiting Toxicity (DLT) Definition: Any Grade ≥3 non-hematology toxicity (excluding alopecia); Any Grade ≥3 hematology toxicity >7 days; Any Grade toxicity that leads to study drug interruption >7 days.
Disease assessments will be performed. Imaging studies will include a CT scan of the chest, abdomen, and pelvis, plus a bone scan. Radiographic confirmation of objective tumor response or disease progression will be based on RECIST v1.1 (Eisenhauer, 2009). For new bone lesions detected on bone scans, a second imaging modality (e.g., CT or MRI) will be required to confirm progression.
(§1) A preliminary analysis of the first 41 patients enrolled in the Phase I study described in Example 1 was conducted. 41 patients were enrolled in the Phase I portion of the study, across 9 different dose escalation cohorts. The patients were postmenopausal women with advanced or metastatic breast cancer that had previously relapsed or progressed following prior therapy with the aromatase inhibitors anastrozole, exemestane, and letrozole (90%), chemotherapy (68%), including capecitabine (27%), tamoxifen (54%), fulvestrant (41%), everolimus (19%), and also other investigational agents (17%).

[2] = test system: ER and Ki-67 levels in tumor specimens; assay: Phase I clinical trial: tumor biopsies, ER and Ki-67 levels; design: species or system postmenopausal women; details: in vivo
Description: Pre- and post-treatment tumor biopsies (soft tissue or visceral lesions) will be collected to evaluate: • Tumor Histology; tumor vs. stroma, vs fibrotic tissue • ERα and PR protein levels by immunohistochemistry or immunofluorescence • Proliferative Index (Ki67) • ER target gene modulation: Examples of ER target genes thay maybe monitored include, but are not limited to: AGR2, AREG, C3, CCND1, CXCL12, ERBB2, GREB1, IL6, IRS1, PDZK1, PGR, SEMA3B, TFF1, TFF2, TFF3, TOP2A, WISP2. Circulating Tumor DNA (ctDNA)
as §1

breast cancer cell lines = assay: breast tumor cell proliferation; format: cell-based
[3] = design: species or system postmenopausal women; details: in vivo
Method: If the safety and PK profile seen in the Phase I (dose escalation) portion of the study are deemed favorable to justify further continuation of the study, dose escalation will be followed by an expansion cohort to further confirm safety and tolerability and assess preliminary evidence of antitumor activity (Phase IIa).
as §1

[4] = test system: xenograft models of ER+ breast cancer; assay: tamoxifen-sensitive and tamoxifen-resistant xenograft models of ER+ breast cancer; format: in vivo
oral bioavailability = details: in vivo

| Compound | safety and tolerability ([1]; 41 patients, progressed on a median of 4 prior treatments) | preliminary overall clinical benefit rate ([1]; all patients, preliminary analysis) [%] | preliminary clinical benefit rate ([1]; patients previously treated with fulvestrant) [%] | ER and Ki-67 levels in tumor specimens [2] | breast tumor cell proliferation (breast cancer cell lines) | dose at which target plasma concentrations were achieved ([3]; female, human) [mg QD] | pharmacokinetic profile ([3]; po) | tolerability ([4]; all doses, xenograft models) | efficacious dose range ([4]; all xenograft models) [mg/kg/day] | anti-tumor activity ([4]; tamoxifen-sensitive and tamoxifen-resistant xenograft models) | oral bioavailability (oral bioavailability) | efficacy compared with the acrylic acid compound ([4]; tamoxifen-resistant xenograft models) |
| --- | --- | --- | --- | --- | --- | --- | --- | --- | --- | --- | --- | --- |
| CC/C(=C(/c1ccc(/C=C/C(=O)O)cc1)c1ccc2[nH]ncc2c1)c1ccc(F)cc1Cl [(E)-3-(4-((E)-2-(2-chloro-4-fluorophenyl)-1-(1H-indazol-5-yl)but-1-en-1-yl)phenyl)acrylic acid] | safe and well tolerated | 42 | 35 | reduced | inhibition of breast tumor cell proliferation | ≥ 600 | linear and dose proportional | very well tolerated | 10 to 100 | dose dependent anti-tumor activity | good oral bioavailability | – |
| C[C@]12CC[C@@H]3c4ccc(O)cc4C[C@@H](CCCCCCCCC[S+]([O-])CCCC(F)(F)C(F)(F)F)[C@H]3[C@@H]1CC[C@@H]2O (stereo partly drawn) [fulvestrant, reference compound] | – | – | – | – | – | – | – | – | – | – | – | less efficacious |
